Columns and labels:
[1] = system: HR-positive, HER2-negative advanced breast cancer; details: added to first-line endocrine therapy with tamoxifen/NSAI plus goserelin, pre- and peri-menopausal women; cited from earlier work
[2] = system: 4T1 tumors; assay: 4T1 tumors treated with 01BSUR and docetaxel; assay type: in vivo, Balb/c mice
Procedure: Treatment of 4T1 Tumors with 01BSUR and Docetaxel Leads to Alterations in the Tumor Microenvironment. Female Balb/c mice with 4T1 tumors implanted subcutaneously (s.c.) on the right flank were treated 8 and 15 days post-tumor implant initiating when the tumors reached about 100 mm^3 with the isotype antibody, docetaxel, 01BSUR, or a combination of docetaxel and 01BSUR. […] 5 days after the first dose, tumors were harvested and analyzed for changes to the infiltrating immune cell populations. This was done again at the end point of the study, 4 days after the second dose.
(§1) • I. Tumor models: The role of IL-1β in tumor immunity and efficacy of IL-1β blocking antibodies were tested in the following preclinical models: • Xenograft tumors in humanized mouse models: NSCLC (H358), TNBC (MDA-MB231) and CRC (SW480) • Syngeneic tumor models: TNBC (4T1) and lung (LL-2) cancer • II. […] Combination treatments include chemotherapeutic agent, docetaxel (6.25 mg/Kg QW IV), PD-1 pathway inhibitors (anti-human PD-1, pembrolizumab 10 mg/Kg Q5D IP or anti-mouse PD-1, clone 1D2 10 mg/Kg QW IP) and anti-mouse VEGF blocking antibody (clone 4G3, 5 mg/Kg Q5D) were used in combination with anti-IL-1β antibody. Appropriate isotype controls were used. In all experiments, dosing was initiated after tumor implantation. • III. Experimental readouts: activity of therapeutic agents in preclinical models were assessed by the following: • Tumor volume was determined by measurement with calipers throughout the course of the study. Tumor weights in milligrams were determined at end of study • Immunohistochemistry analysis was performed on FFPE NSCLC (H358) xenograft tissue • Changes in immune populations in peripheral blood in CRC (SW480) xenograft humanized model and tumors in syngeneic models (4T1 and LL-2) were assessed by flow cytometry using markers for T cell, myeloid populations

[3] = system: LL2; assay: Anti-IL-1β in combination with docetaxel in aggressive lung model (LL2); assay type: in vivo, mouse
Procedure: Preclinical Data on the Efficacy of Canakinumab in Combination with Docetaxel in the Treatment of Cancer.
as §1, with “In all experiments, dosing was initiated after tumor implantation. • III.” left out

[4] = Gevokizumab clinical pharmacokinetics; assay type: in vivo, human
[5] = system: hsCRP; assay: hsCRP change after gevokizumab treatment in type 2 diabetes patients; assay type: in vivo, human; details: top dose 0.3 mg/kg (~20 mg) Q4W
Description: FIG. 12. Clinical data after gevokizumab treatment (panel a) and its extrapolation to higher doses (panels b, c, and d). Adjusted percent change from baseline in hsCRP in patients in a). The hsCRP exposure-response relationship is shown in b) for six different hsCRP base line concentrations.

[6] = system: SW480; assay: CRC SW480 xenograft in humanized BLT mice; assay type: in vivo, humanized mouse
Procedure: as §1

[7] = system: MDA-MB-231Luc2-TdTomato cells; assay: Spontaneous human breast cancer metastasis to human bone implants; assay type: in vivo, NOD SCID mice
Procedure: FIG. 4. Pharmacological blockade of IL-1B inhibits spontaneous metastasis to human bone in vivo. Female NOD-SCID mice bearing two 0.5 cm^3 pieces of human femoral bone received intra-mammary injections of MDA-MB-231Luc2-TdTomato cells. […] All animals were culled 35 days following tumour cell injection. Effects on bone metastases (a) were assessed in vivo and immediately post-mortem by luciferase imaging and confirmed ex vivo on histological sections. Data are shown as numbers of photons per second emitted 2 minutes following sub-cutaneous injection of D-luciferin. Effects on numbers of tumour cells detected in the circulation are shown in (b). *=P<0.01. **=P<0.001. ***=P<0.0001.
(§2) To model human breast cancer metastasis to human bone implants two human bone discs were implanted subcutaneously into 10-week old female NOD SCID mice (n=10/group) under isofluorane anaesthetic. Mice received an injection of 0.003 mg vetergesic and Septrin was added to the drinking water for 1 week following bone implantation. Mice were left for 4 weeks before injecting 1×10^5 MDA-MB-231 Luc2-TdTomato, MCF7 Luc2 or T47D Luc2 cells in 20% Martigel/79% PBS/1% toluene blue into the two hind mammary fat pads. Primary tumor growth and development of metastases was monitored weekly using an IVIS […] system (Caliper Life Sciences) following sub-cutaneous injection of 30 mg/ml D-luciferin (Invitrogen). On termination of experiments mammary tumors, circulating tumor cells, serum and bone metastases were resected. RNA was processed for downstream analysis by real time PCR, and cell lysates were taken for protein analysis and whole tissue for histology as previously described (Nutter et al., 2014; Ottewell et al., 2014a). […] Tumor cells, serum, and bone were subsequently resected for downstream analysis. Bone metastases were investigated following injection of 5×10^5 MDA-MB-231 GFP (control), MDA-MB-231-IV, MDA-MB-231-IL-1B-positive or MDA-MB-231-IL-1R1-positive cells into the lateral tail vein of 6 to 8-week old female BALB/c nude mice (n=12/group). Tumor growth in bones and lungs was monitored weekly by GFP imaging in live animals. Mice were culled 28 days after tumor cell injection at which timepoint hind limbs, lungs and serum were resected and processed for microcomputed tomography imaging (pCT), histology and ELISA analysis of bone turnover markers and circulating cytokines as described (Holen et al., 2016).
Whole blood was centrifuged at 10,000×g for 5 minutes and the serum removed for ELISA assays. The cell pellet was re-suspended in 5 ml of FSM lysis solution (Sigma-Aldrich, Pool, UK) to lyse red blood cells. Remaining cells were re-pelleted, washed 3× in PBS and re-suspended in a solution of PBS/10% FCS. Samples from 10 mice per group were pooled prior to isolation of TdTomato positive tumor cells using a MoFlow High performance cell sorter (Beckman Coulter, Cambridge UK) with the […] laser line from a Coherent I-90C tenable argon ion (Coherent, Santa Clara, Calif.). TdTomato fluorescence was detected by a 555LP dichroic long pass and a 580/30 nm band pass filter. Acquisition and analysis of cells was performed using Summit 4.3 software. After sorting, cells were immediately placed in RNA protect cell reagent (Ambion, Paisley, Renfrew, UK) and stored at −80° C. before RNA extraction. For counting numbers of circulating tumor cells, TdTomato fluorescence was detected using a 561 nm laser and an YL1-A filter (585/16 emission filter). Acquisition and analysis of cells was performed using Attune N×T software.

[8] = system: CD34+ blood vessels in trabecular bone; assay: Bone microvasculature after suppression of IL-1β signalling; assay type: in vivo, BALB/c nude mice and C57BL/6 mice
Procedure: FIG. 7. IL-1β in the bone microenvironment stimulates expansion of the bone metastatic niche. Effects of adding 40 pg/ml or 5 ng/ml recombinant IL-1β to MDA-MB-231 or T47D breast cancer cells is shown in (a) and effects on adding 20 pg/ml, 40 pg/ml or 5 ng/ml IL-1B on proliferation of HS5, bone marrow, or OB1, osteoblasts, are shown in b) and c) respectively. (d) IL-1 driven alterations to the bone vasculature was measured following CD34 staining in the trabecular region of the tibiae from 10-12-week old female IL-1R1 knockout mice. […] Data are shown as mean+/−SEM, *=P<0.01, **=P<0.001, ***=P<0.0001.
FIG. 8. Suppression of IL-1β signalling affects bone integrity and vasculature. […] Data shown are mean+/−SEM, *=P<0.01, **=P<0.001, ***=P<0.0001 compared with control.
as §2

For CN(C)C(=O)c1cc2cnc(Nc3ccc(N4CCNCC4)cn3)nc2n1C1CCCC1 [ribociclib], the “progression-free survival (PFS)” value [1] is given as “significantly prolonged progression-free survival”.
With CC(=O)O[C@@]12CO[C@@H]1C[C@H](O)[C@@]1(C)C(=O)[C@H](O)C3=C(C)[C@@H](OC(=O)[C@H](O)[C@@H](NC(=O)OC(C)(C)C)c4ccccc4)C[C@@](O)([C@@H](OC(=O)c4ccccc4)[C@H]21)C3(C)C [docetaxel] the “granulocytic MDSC” value ([2]; 5 days after a single dose) was “decrease in granulocytic MDSC”, the “neutrophils in 4T1 tumors” value ([2]; 5 days after a single dose) was “decrease in neutrophils” and the “CD4+ and CD8+ T cells expressing TIM-3” value ([2]; four days after a second dose, vs control group) was “no change in the TIM-3 expressing cells”. For the same compound, the tumor growth ([2]; treated days 8 and 15 post tumor implant, vs vehicle/isotype control) was “delay was enhanced” and the “efficacy (tumor growth)” value [3] was “modest efficacy”.
With “gevokizumab: high-affinity, humanized monoclonal antibody of the IgG2 isotype to interleukin-1β” the Bioavailability ([4]; administered subcutaneously) was “about 56%”, the pharmacokinetic model ([4]; after subcutaneous administration) was “linear two-compartment model with first order absorption” and the “reduction of hsCRP” value [5] was “up to 45%”. For the same compound, the “animals with significant reduction in tumor volume” value ([6]; one of two experiments) was 100 % of animals and the “animals with slower tumor growth” value ([6]; second experiment, compared to isotype control) was 80 % of animals.
In the case of “IL-1Ra: IL-1R antagonist (Anakinra) used to inhibit IL-1β signaling”, the “mice with metastasis detected in human bone implants” value ([7]; IL-1Ra 1 mg/kg daily, canakinumab sc every 14 days, from 7 days after tumor cell injection, control 7 out of 10) is reported as 4 out of 10, the “size of bone metastases” value ([7]; luciferase imaging, vs control group) is reported as “smaller than those detected in the control group” and the “tumor cells counted in whole blood” value ([7]; placebo 108 tumor cells/ml) is reported as 3 tumor cells/ml. For the same compound, the “average length of CD34+ blood vessels in trabecular bone” value ([8]; IL-1Ra 1 mg/kg daily (BALB/c nude), canakinumab single dose (C57BL/6), p<0.01) was “reduced the average length”, the “endothelin 1 concentration (ELISA)” value ([8]; compared with control, p<0.01) was “reduced concentrations” and the “VEGF concentration (ELISA)” value ([8]; compared with control, p<0.01 IL-1R antagonist, p<0.001 canakinumab) was “reduced concentrations”.

— patent US20220056123A1, “USE OF IL-1BETA BINDING ANTIBODIES” (NOVARTIS AG, priority 2018, published 2022)
